Measured values: US12214036B2, “Combination therapy comprising AXL/MER and PD-1/PD-L1 inhibitors” (Incyte Corporation, priority 2020, dated 2025)

Tests used:
CTG-1302 tumors = test: Sarcoma PDX model CTG-1302 (leiomyosarcoma); format: in vivo, athymic nude mice; details: CTG-1302, 10, 30, 100 mg/kg BID oral, FIG. 9B
Text: MBT-2 cells were obtained from the Japanese Collection of Research Bioresources Cell Bank and were maintained in DMEM supplemented with 10% FBS. MC38 cells were obtained from the NCI. 4T1 cells were obtained from ATCC and maintained in RPMI media supplemented with 10% FBS. For MBT-2 experiments, 5×10^5 MBT-2 cells were inoculated subcutaneously into the right hind flank of 6- to 8-week-old C3H mice or athymic nude mice (Charles River Laboratories, Wilmington, Mass.). For MC38 studies, 12-week old female C57BL/6 mice were inoculated with brei of MC38 tumors (in-vivo passage 6) into the right hind flank. For 4T1 studies, 7.5×10^5 4 T1 cells were inoculated subcutaneously into the right hind flank of 6- to 8-week-old female BALB/c mice or athymic nude mice (Charles River Laboratories). […] Mice were monitored for tumor growth and overt tolerability over the course of the experiment. […] Tumor volume was calculated using the formula (L×W^2)/2, where L and W refer to the length and width dimensions, respectively. Tumor growth inhibition (TGI) was calculated using the formula (1−(VT/VC))×100, where VT is the tumor volume of the treatment group on the last day of treatment, and VC is the tumor volume of the control group on the last day of treatment. […]
The activity of Compound 1 in sarcoma PDX models was evaluated as described in Example H for PDX models. […] Three mice per group were analyzed. […]

AXL = target: T1, AXL (Homo sapiens, UniProt P30530); test: TR-FRET kinase assay, phospho-AXL; format: biochemical; details: average from multiple lots, n=18; read-out: IC50 against AXL
T1 construct: recombinant phosphorylated forms of the kinase domains for AXL, MER and TYRO3; purchased ThermoFisher Scientific PV4275
T1 sequence (P30530 536-807 limits assumed): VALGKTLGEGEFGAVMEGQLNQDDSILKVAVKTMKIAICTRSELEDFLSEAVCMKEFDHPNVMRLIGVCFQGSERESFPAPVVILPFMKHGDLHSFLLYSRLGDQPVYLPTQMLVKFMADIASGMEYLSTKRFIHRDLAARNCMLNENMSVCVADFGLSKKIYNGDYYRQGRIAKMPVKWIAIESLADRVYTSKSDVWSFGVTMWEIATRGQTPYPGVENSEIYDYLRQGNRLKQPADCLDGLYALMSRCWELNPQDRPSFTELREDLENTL
Protocol: The biochemical potency of Compound 1 to inhibit the enzymatic activity of TAM family members was investigated by TR-FRET assays using recombinant phosphorylated forms of the kinase domains for AXL, MER and TYRO3.
Phospho-AXL (pAXL), cMER and Tyro3 kinase activities were measured by time-resolved fluorescence energy transfer (TR-FRET) assays. Autophosphorylation of AXL was carried out before the kinase assay by incubating the recombinant AXL protein (ThermoFisher Scientific; #PV4275) in buffer containing 50 mM Tris, pH 7.5, 0.2 mg/mL AXL, 5 mM ATP, 20 mM MgCl2 and 2 mM dithiothreitol (DTT) at room temperature for 1 hour. The kinase assay buffer contained 50 mM HEPES, pH 7.5, 10 mM MgCl2, 1 mM EGTA, 0.01% NP-40 and 2 mM DTT. Enzyme solutions of 0.69 nM phospho-AXL, or 0.088 nM cMER (Carna Biosciences, Kobe, Japan; #08-108) or 0.137 nM TYRO3 (Life Technologies, PR7480A) were prepared in assay buffer. […] The plate was incubated for 30 minutes at room temperature, and homogenous time resolved fluorescence (HTRF) signal was measured on a PheraStar FS plate reader (BMG Labtech, Ortenberg, Germany). Percent inhibition was calculated for each concentration, and half maximal inhibitory concentration (IC50) value was generated from curve fitting with GraphPad Prism software (San Diego, Calif.).

Compound: CC(C)C(=O)N1CCC(c2cc(-c3ccc(NC(=O)c4cn(C(C)C)c(=O)n(-c5ccccn5)c4=O)cc3)c3c(N)ncnn23)CC1 [Compound 1, N-(4-(4-Amino-7-(1-isobutyrylpiperidin-4-yl)pyrrolo[1,2-f][1,2,4]triazin-5-yl)phenyl)-1-isopropyl-2,4-dioxo-3-(pyridin-2-yl)-1,2,3,4-tetrahydropyrimidine-5-carboxamide]
- antitumor response (CTG-1302 tumors): robust antitumor response
- IC50 (AXL): 0.61 ± 0.31 nM
